# In patent US20260109721A1, “IONIZABLE CATIONIC LIPIDS INCORPORATING SILICON: SYNTHESIS AND LNP FORMULATION” (priority 2023, published 2026):
# Experiments:
# [1] = LNP size, PDI and zeta potential by Dynamic Light Scattering (Method A); assay type: physicochemical; conditions: LNP formulated with the lipid, DLS
# Method: (§1) The synthesized lipids were tested in term of in vitro transfection efficacy and toxicity on HeLa cells. In order to perform the mentioned biological tests, appropriate LNPs had to be formulated from the synthesized lipids. The formulation technique was different in Method A and B. The particle size, polydispersity index (PDI) and zeta potential of resulting LNPs were determined by means of Dynamic Light Scattering technique (DLS). Prior to biological testing the encapsulation efficiency (EE) of the loaded LNPs was determined by using RiboGreen RNA assay. In case of Method A Luc mRNA while in case of Method B GFP mRNA was transfected into the cells. In parallel with the transfection experiments, toxicity of the investigated LNPs was determined, in case of Method A resazurin assay while in case of Method B MTT assay was used. Additionally, the toxicity of the lipids was investigated on HepG2 cells and IC50 values were determined.
# • 1. If needed, prepare stock solutions by solving known amounts of lipid powder into an appropriate solvent. The recommended solvent is ethanol and the recommended concentration is typically in the range 10-50 mM. Higher concentrations are preferred to allow flexibility on mRNA-LNP concentration. • 2. Remove the lipid stock solutions from the −20° C. freezer. For long-term storage, −80° C. is used. • 3. Check the vials for precipitation, DOPE (CAS #4004-05-1) (20 mM) and DSPE-PEG (CAS #474922-26-4) (5 mM) may need a 5-30 minute incubation step at 37° C. with intermittent vortexing to resuspend all contents. […] As a last resort, lipids may be heated to 50° C. to resuspend, time should be kept as short as possible to prevent oxidation or other modifying or degradative processes. • 4. Mix the lipids by vortexing for 2 minutes. • 5. […] Cooling the solution prevent excessive evaporation of ethanol or similar solvents upon opening. • 6. Meanwhile, thaw the RNA samples, including the latest SecNLuc control, by inserting the frozen tube in a room temperature aluminium block. • 7. Prepare for each LNP-formulation with identical mRNA component, an RNA master mix according to Table 1 below in a fresh tube. Use of a master mix allows more precise comparison of lipid formulations relative to each other. Split the master mix over a number of fresh tubes equal to the number of samples+controls. Each tube contains 375 μl of mRNA in 10 mM Citrate pH 4.0. • 8. Prepare for each LNP formulation with identical lipid composition a Lipid master mix according to Table 1 below in a fresh tube, exclude the lipid of interest. Use of a master mix allows more precise comparison of the novel ionizable lipid relative to each other. Split the master mix over a number of fresh tubes equal to the number of samples+controls. Each tube contains 65.5 μl of lipid master mix. • 9. Add the ionizable lipid of interest to the equally divide lipid master mix. Mix well by pipetting up and down. Label the tube according to the ionizable lipid used. • 10. Power on the L1 FM (L1 Formulation Machine uses 2 high-speed syringe pumps to mix lipids in organic solvents with mRNA in acidic aquous solution to generate well-defined LNPs. The microfluidic mixing chip involves a dean-type structure performing the high-efficiency mixing at a total flow rate (TFR) of around 12 ml/min at a 3:1 mixing ratio) and allow it to do a calibration of motor positions.
# • 18. Fill a fresh syringe (C) through a blunt 18G stainless steel needle with the previously prepared RNA mixture of step 6. The volume should be approximately 85% of total formulation volume+25 μl (dead-volume). Make sure to remove all air bubbles by tapping. • 19. Fill a fresh syringe (D) through a blunt 18G stainless steel needle with the Lipid master mix. The volume should be approximately […] of total formulation volume+25 μl (dead-volume). Again, Make sure to remove all bubbles. • 20. Attach the syringes in the correct orientation, syringe A on the left and syringe B on the right • 21.
# HeLa cells = experiment: Transfection efficiency with Luciferase (SecNLuc) mRNA, Nano-Glo assay (Method A); assay type: cell-based; conditions: Luc mRNA, 24 h, luminescence; for Transfection 10 ng mRNA: 10 ng mRNA/well; for Transfection 50 ng mRNA: 50 ng mRNA/well; for Transfection 100 ng mRNA: 100 ng mRNA/well
# Method: as §1
# • 1. Prepare mRNA solution by adding 100 ng mRNA (SecNLuc, #P009024, RiboPro) to 5 μl Opti-MEM • multiply by number of wells, include different concentrations and add 10% extra • a standard set-up we use is 100 ng-50 ng-10 ng mRNA/well in triplicate, which would need […] mRNA (includes 10% extra)
# • 2. (If applicable) Prepare different concentrations in Opti-MEM (for instance 100/50/10 ng). • 3. Add 10 μl to each well and mix carefully by pipetting. • 4. Mix by swirling the plate horizontally at modest speed. Reverse in direction 3 times. • 5. Incubate for 24 hours (incubator).
# This protocol is applied to measure luciferase activity for secreted NanoLuc and is based on the protocol by Promega (Nano-Glo® Luciferase Assay System #N1110-1150). The protocol is designed for a 384-wells plate, but volumes can be changed accordingly for other plates.
# • 1. Plate cells (HeLa) in 96-well plate, grow until 80% confluent and transfect with SecNanoLuc mRNA and incubate for the desired period (24 h). • 2. After incubation, the translated protein is accumulated in the medium. Transfer medium to a new plate or tubes. • 3. Transfer 12 μl of each sample to a black-walled, clear-bottom 384-well plate • Black-walled plates are important to prevent shine-through of luminescence from other wells; alternatively, multiple wells between samples can be left empty. • 4. Set-up plate reader • 5. Prepare the desired amount of Nano-Glo® Luciferase Assay Reagent by combining one volume of Nano-Glo® Luciferase Assay Substrate with 50 volumes of Nano-Glo® Luciferase Assay Buffer: • a. composition: 100 mM MES pH 6; 1 mM EDTA; […]; 150 mM KCl; 1 mM DTT; 35 mM Thiourea; • b. briefly spin tubes containing substrate in a microcentrifuge before use. • 6. Add and mix (by pipetting) 12 μl Nano-Glo® Luciferase Assay Reagent per well • Wait approximately 3 minutes before measuring luminescence. […] Measure luminescence in plate reader using standard protocol luciferase (this includes mixing sample in plate reader)
SMILES,PDI [1],Size (nm) [1] [nm],Zeta potential (mV) [1] [mV],Transfection 10 ng mRNA (HeLa cells),Transfection 50 ng mRNA (HeLa cells),Transfection 100 ng mRNA (HeLa cells)
"CCCCCCCCC(CCCCCC)C(=O)OCCCCCCN(CCCCO)CCCCCCOC(=O)C(CCCCCC)CCCCCCCC (stereo not drawn) [ALC-0315, reference compound]",0.007,131.9,−12.32,2.38E+06,1.22E+07,9.34E+06
"CCCCC/C=C\C/C=C\CCCCCCCCOC(CCCCCN(CCO)CCO)O[Si](C)(C)OCCCCCCCC/C=C\C/C=C\CCCCC (stereo not drawn) [Example 39, (21Z,24Z)-3-(2-hydroxyethyl)-11,11-dimethyl-9-(((9Z,12Z)-octadeca-9,12-dien-1-yl)oxy)-10,12-dioxa-3-aza-11-silatriaconta-21,24-dien-1-ol]",0.072,170.4,−9.414,1.46E+05,1.40E+06,4.78E+06
"CCCCC/C=C\C/C=C\CCCCCCCCO[Si](C)(C)OC(CCCCCCC/C=C\C/C=C\CCCCC)OCCCCCCN(CCO)CCO (stereo not drawn) [Example 40, (23Z,26Z)-11-((8Z,11Z)-heptadeca-8,11-dien-1-yl)-3-(2-hydroxyethyl)-13,13-dimethyl-10,12,14-trioxa-3-aza-13-siladotriaconta-23,26-dien-1-ol]",0.020,152.7,−8.912,1.47E+05,2.13E+06,8.09E+06
"CCCCCCCC/C=C\CCCCCCCCOC(CCCCCCCCCCCCCCC)O[Si](C)(C)OCCCCCCN(CCO)CCO (stereo not drawn) [Example 41, (Z)-3-(2-hydroxyethyl)-11,11-dimethyl-13-pentadecyl-10,12,14-trioxa-3-aza-11-siladotriacont-23-en-1-ol]",0.031,144.2,−8.54,3.11E+05,3.64E+06,1.03E+07
"CCCCCCCC/C=C\CCCCCCCC(OCCCCCCCCCCCCCCCC)O[Si](C)(C)OCCCCCCN(CCO)CCO (stereo not drawn) [Example 42, (Z)-13-(heptadec-8-en-1-yl)-3-(2-hydroxyethyl)-11,11-dimethyl-10,12,14-trioxa-3-aza-11-silatriacontan-1-ol]",0.059,129.0,−8.408,6.16E+04,1.32E+06,5.53E+06
"CCCCC/C=C\C/C=C\CCCCCCCCOC(CCCCCCCCCCCCCCC)O[Si](C)(C)OCCCCCCN(CCO)CCO (stereo not drawn) [Example 43, (23Z,26Z)-3-(2-hydroxyethyl)-11,11-dimethyl-13-pentadecyl-10,12,14-trioxa-3-aza-11-siladotriaconta-23,26-dien-1-ol]",0.006,144.9,−7.944,4.81E+05,5.50E+06,1.32E+07
"CCCCC/C=C\C/C=C\CCCCCCCC(OCCCCCCCCCCCCCCCC)O[Si](C)(C)OCCCCCCN(CCO)CCO (stereo not drawn) [Example 44, 13-((8Z,11Z)-heptadeca-8,11-dien-1-yl)-3-(2-hydroxyethyl)-11,11-dimethyl-10,12,14-trioxa-3-aza-11-silatriacontan-1-ol]",0.083,131.2,−8.273,1.57E+05,2.08E+06,7.09E+06
"CCCCC/C=C\C/C=C\CCCCCCCC(OCCCCCCCC/C=C\CCCCCCCC)O[Si](C)(C)OCCCCCCN(CCO)CCO (stereo not drawn) [Example 45, (Z)-13-((8Z,11Z)-heptadeca-8,11-dien-1-yl)-3-(2-hydroxyethyl)-11,11-dimethyl-10,12,14-trioxa-3-aza-11-siladotriacont-23-en-1-ol]",0.043,136.8,−8.85,1.80E+05,2.42E+06,7.94E+06
"CCCCC/C=C\C/C=C\CCCCCCCCOC(CCCCCCC/C=C\CCCCCCCC)O[Si](C)(C)OCCCCCCN(CCO)CCO (stereo not drawn) [Example 46, (23Z,26Z)-13-((Z)-heptadec-8-en-1-yl)-3-(2-hydroxyethyl)-11,11-dimethyl-10,12,14-trioxa-3-aza-11-siladotriaconta-23,26-dien-1-ol]",0.095,129.4,−7.772,1.46E+05,1.93E+06,8.16E+06
"CCCCCCCC/C=C\CCCCCCCCOC(CCCCCCC/C=C\CCCCCCCC)O[Si](C)(C)OCCCCCCN(CCO)CCO (stereo not drawn) [Example 47, (Z)-13-((Z)-heptadec-8-en-1-yl)-3-(2-hydroxyethyl)-11,11-dimethyl-10,12,14-trioxa-3-aza-11-siladotriacont-23-en-1-ol]",0.014,125.0,−8.469,3.37E+04,1.29E+06,7.06E+06
"CCCCC/C=C\C/C=C\CCCCCCCCOC(CCCCCCC/C=C\C/C=C\CCCCC)O[Si](C)(C)OCCCCCCN(CCO)CCO (stereo not drawn) [Example 48, (23Z,26Z)-13-((8Z,11Z)-heptadeca-8,11-dien-1-yl)-3-(2-hydroxyethyl)-11,11-dimethyl-10,12,14-trioxa-3-aza-11-siladotriaconta-23,26-dien-1-ol]",0.052,149.6,−7.501,5.52E+02,1.65E+03,1.82E+03
